Reference: ChEMBL document CHEMBL1697731, “Cheminformatics analysis of assertions mined from literature that describe drug-induced liver injury in different species” (Chem Res Toxicol, 2010)

Assays:
Hepatotoxicity [1] = assay: Literature-mined compound from Fourches et al multi-species drug-induced liver injury (DILI) dataset, effect in rodents; conditions: rodentia
Hepatotoxicity [2] = assay: Literature-mined compound from Fourches et al multi-species drug-induced liver injury (DILI) dataset, effect in humans; conditions: human
Hepatotoxicity [3] = assay: Literature-mined compound from Fourches et al multi-species drug-induced liver injury (DILI) dataset, effect in non-rodents

SMILES	Hepatotoxicity (Hepatotoxicity [1])	Hepatotoxicity (Hepatotoxicity [2])	Hepatotoxicity (Hepatotoxicity [3])	Hepatotoxicity (Hepatotoxicity [1]; Liver)	Hepatotoxicity (Hepatotoxicity [2]; Liver)	Hepatotoxicity (Hepatotoxicity [3]; Liver)
Cc1ccc(C(=O)Nc2ccc(S(=O)(=O)O)c3cc(S(=O)(=O)O)cc(S(=O)(=O)O)c23)cc1NC(=O)c1cccc(NC(=O)Nc2cccc(C(=O)Nc3cc(C(=O)Nc4ccc(S(=O)(=O)O)c5cc(S(=O)(=O)O)cc(S(=O)(=O)O)c45)ccc3C)c2)c1 [SURAMIN]	drug-induced liver injury reported	drug-induced liver injury reported	drug-induced liver injury reported			
Cl.Nc1c2c(nc3ccccc13)CCCC2 [TACRINE HYDROCHLORIDE]				drug-induced liver injury reported	no drug-induced liver injury reported	no drug-induced liver injury reported
C=CC[C@@H]1/C=C(\C)C[C@H](C)C[C@H](OC)[C@H]2O[C@@](O)(C(=O)C(=O)N3CCCC[C@H]3C(=O)O[C@H](/C(C)=C/[C@@H]3CC[C@@H](O)[C@H](OC)C3)[C@H](C)[C@@H](O)CC1=O)[C@H](C)C[C@@H]2OC [TACROLIMUS ANHYDROUS]	drug-induced liver injury reported	drug-induced liver injury reported	no drug-induced liver injury reported			
O=C(OC[C@H]1O[C@@H](OC(=O)c2cc(O)c(O)c(OC(=O)c3cc(O)c(O)c(O)c3)c2)[C@H](OC(=O)c2cc(O)c(O)c(OC(=O)c3cc(O)c(O)c(O)c3)c2)[C@@H](OC(=O)c2cc(O)c(O)c(OC(=O)c3cc(O)c(O)c(O)c3)c2)[C@@H]1OC(=O)c1cc(O)c(O)c(OC(=O)c2cc(O)c(O)c(O)c2)c1)c1cc(O)c(O)c(OC(=O)c2cc(O)c(O)c(O)c2)c1 [TANNIC ACID]	drug-induced liver injury reported	no drug-induced liver injury reported	drug-induced liver injury reported			
O=c1[nH]c(=O)n(C2CCCO2)cc1F (centres undefined) [TEGAFUR]	no drug-induced liver injury reported	drug-induced liver injury reported	no drug-induced liver injury reported			
CC[C@H]1OC(=O)[C@H](C)C(=O)[C@H](C)[C@@H](O[C@@H]2O[C@H](C)C[C@H](N(C)C)[C@H]2O)[C@](C)(OC)C[C@@H](C)C(=O)[C@H](C)[C@H]2N(CCCCn3cnc(-c4cccnc4)c3)C(=O)O[C@]12C [TELITHROMYCIN]				drug-induced liver injury reported	drug-induced liver injury reported	no drug-induced liver injury reported
Cn1nnc2c(C(N)=O)ncn2c1=O [TEMOZOLOMIDE]	no drug-induced liver injury reported	drug-induced liver injury reported	no drug-induced liver injury reported			
COc1cc([C@@H]2c3cc4c(cc3[C@@H](O[C@@H]3O[C@@H]5CO[C@@H](c6cccs6)O[C@H]5[C@H](O)[C@H]3O)[C@H]3COC(=O)[C@H]23)OCO4)cc(OC)c1O [TENIPOSIDE]	drug-induced liver injury reported	no drug-induced liver injury reported	no drug-induced liver injury reported			
C[C@H](Cn1cnc2c(N)ncnc21)OCP(=O)(O)O [TENOFOVIR ANHYDROUS]	no drug-induced liver injury reported	drug-induced liver injury reported	no drug-induced liver injury reported			
CN1C(C(=O)Nc2ccccn2)=C(O)c2sccc2S1(=O)=O [TENOXICAM]				no drug-induced liver injury reported	drug-induced liver injury reported	no drug-induced liver injury reported
CN(C/C=C/C#CC(C)(C)C)Cc1cccc2ccccc12 [TERBINAFINE]	drug-induced liver injury reported	drug-induced liver injury reported	no drug-induced liver injury reported			
CC(C)(C)NCC(O)c1cc(O)cc(O)c1 (centres undefined) [TERBUTALINE]	drug-induced liver injury reported	no drug-induced liver injury reported	drug-induced liver injury reported			
CC(C)(C)c1ccc(C(O)CCCN2CCC(C(O)(c3ccccc3)c3ccccc3)CC2)cc1 (centres undefined) [TERFENADINE]	no drug-induced liver injury reported	drug-induced liver injury reported	no drug-induced liver injury reported			
NCCCC[C@H](NC(=O)[C@@H]1CCCN1C(=O)[C@@H]1CSSC[C@H](NC(=O)CNC(=O)CNC(=O)CN)C(=O)N[C@@H](Cc2ccc(O)cc2)C(=O)N[C@@H](Cc2ccccc2)C(=O)N[C@@H](CCC(N)=O)C(=O)N[C@@H](CC(N)=O)C(=O)N1)C(=O)NCC(N)=O [TERLIPRESSIN]	no drug-induced liver injury reported	drug-induced liver injury reported	drug-induced liver injury reported			
CCCCCCC(=O)O[C@H]1CC[C@H]2[C@@H]3CCC4=CC(=O)CC[C@]4(C)[C@H]3CC[C@]12C [TESTOSTERONE ENANTHATE]	drug-induced liver injury reported	no drug-induced liver injury reported	no drug-induced liver injury reported			
CCC(=O)O[C@H]1CC[C@H]2[C@@H]3CCC4=CC(=O)CC[C@]4(C)[C@H]3CC[C@]12C [TESTOSTERONE PROPIONATE]	drug-induced liver injury reported	no drug-induced liver injury reported	no drug-induced liver injury reported			
C[C@]12CC[C@H]3[C@@H](CCC4=CC(=O)CC[C@@]43C)[C@@H]1CC[C@@H]2O [TESTOSTERONE]	drug-induced liver injury reported	drug-induced liver injury reported	drug-induced liver injury reported			
COc1cc2c(cc1OC)C1CC(=O)C(CC(C)C)CN1CC2 (centres undefined) [TETRABENAZINE]	no drug-induced liver injury reported	drug-induced liver injury reported	no drug-induced liver injury reported			
CCCCNc1ccc(C(=O)OCCN(C)C)cc1 [TETRACAINE]	drug-induced liver injury reported	no drug-induced liver injury reported	no drug-induced liver injury reported			
ClC(Cl)=C(Cl)Cl [TETRACHLOROETHYLENE]	drug-induced liver injury reported	drug-induced liver injury reported	no drug-induced liver injury reported			
CN(C)[C@@H]1C(O)=C(C(N)=O)C(=O)[C@@]2(O)C(O)=C3C(=O)c4c(O)cccc4[C@@](C)(O)[C@H]3C[C@@H]12 [TETRACYCLINE]	drug-induced liver injury reported	drug-induced liver injury reported	drug-induced liver injury reported			
COc1ccccc1Oc1c(NS(=O)(=O)c2ccc(C(C)C)cn2)nc(-c2ccnc(-c3nnn[nH]3)c2)nc1OCCO [TEZOSENTAN]	drug-induced liver injury reported	no drug-induced liver injury reported	no drug-induced liver injury reported			
O=C1CCC(N2C(=O)c3ccccc3C2=O)C(=O)N1 (centres undefined) [THALIDOMIDE]	drug-induced liver injury reported	drug-induced liver injury reported	no drug-induced liver injury reported			
